Values after ≈ are worked out from the molar mass of the structure shown. Like-named read-outs stand apart in the source and are kept apart here.
Key:
in vitro = conditions: African green monkey
M. tuberculosis H37Rv = assay: Microplate Alamar Blue Assay (MABA), MIC determination; assay type: cell-based, Mycobacterium tuberculosis; conditions: two-fold dilution from 100.00 to 0.19 μg/mL
male mice = assay: Acute toxicity in vivo, median lethal dose; conditions: intraperitoneal, approximate LD50 (Litchfield and Wilcoxon)
Description: The synthesized compounds were evaluated for their approximate LD50 in male mice. The mice were kept under a constant temperature and humidity in sterile cages with water and food. The stock solutions of the compounds used in this study were prepared immediately before usage and injected intraperitoneally (ip). The LD50 values (Tab. 3) were calculated using the method described by Litchfield and Wilcoxon.
The median lethal dose (LD50), the dose of the selected compounds that causes 50% mortality in mice, was determined from dose–response curves with at least four doses by the method of Litchfield and Wilcoxon.

[1] = system: Mycobacterium tuberculosis H37Rv strain (ATCC 27294); assay: Antimycobacterial pre-screening at 6.25 μg/mL (BACTEC 460 radiometric system); assay type: cell-based; conditions: M. tuberculosis H37Rv; for inhibition at 6.25 µg/mL: 6.25 μg/mL; for MIC90: pre-screening, read-out: Estimation of MIC90
[2] = Cytotoxicity in VERO cells (MTT); conditions: African green monkey
[3] = Mycobacterium tuberculosis, H37RV, read-out: MIC90

O=C1C2=C(C(=O)c3ccccc31)C(c1ccccc1O)c1sc(=O)[nH]c1S2 (stereo not drawn) [Compound 4a, 11-(2-Hydroxyphenyl)-3, 11-dihydro-2H-benzo[6,7]thiochromeno[2,3-d][1,3]thiazole-2,5,10-trione]
IC50 at 72 h (in vitro): 0.44 µg/mL (≈ 1.12 µM) | MIC90 (M. tuberculosis H37Rv; [3]): 0.6 to 2.7 µg/mL (≈ 1.52 to 6.86 µM) | MIC90 (M. tuberculosis H37Rv): 0.68 µg/mL (≈ 1.73 µM) | LD50ip (male mice): 800 mg/kg | inhibition at 6.25 µg/mL [1]: ≥ 90% | MIC90 [1]: < 6.25 µg/mL

CC(C)(C)c1ccc(C2C3=C(Sc4[nH]c(=O)sc42)C(=O)c2ccccc2C3=O)cc1 (stereo not drawn) [Compound 4b, 11-(4-tert-Butylphenyl)-3,11-dihydro-2H-benzo[6,7]thiochromeno[2,3-d][1,3]thiazole-2,5,10-trione]
LD50ip (male mice): 650 mg/kg | inhibition at 6.25 µg/mL [1]: 61% | MIC90 [1]: > 6.25 µg/mL

COC(=O)c1ccc(C2C3=C(Sc4[nH]c(=O)sc42)C(=O)c2ccccc2C3=O)cc1 (stereo not drawn) [Compound 4c, Methyl 4-(2,5,10-trioxo-3,5,10,11-tetrahydro-2H-benzo[6,7]thiochromeno[2,3-d][1,3]thiazol-11-yl)benzoate]
LD50ip (male mice): 180 mg/kg | inhibition at 6.25 µg/mL [1]: ≥ 90% | MIC90 [1]: < 6.25 µg/mL

COc1cc(C2C3=C(Sc4[nH]c(=O)sc42)C(=O)c2ccccc2C3=O)ccc1OC(F)F (stereo not drawn) [Compound 4d, 11-[4-(Difluoromethoxy)-3-methoxyphenyl]-3,11-dihydro-2H-benzo[6,7]thio-chromeno[2,3-d][1,3]thiazole-2,5,10-trione]
LD50ip (male mice): 710 mg/kg | inhibition at 6.25 µg/mL [1]: 65% | MIC90 [1]: > 6.25 µg/mL

O=C1C2=C(C(=O)c3ccccc31)C(c1ccc(Cl)cc1)c1sc(=O)[nH]c1S2 (stereo not drawn) [Compound 4g, 11-(4-Chlorophenyl)-3,11-dihydro-2H-benzo[6,7]thiochromeno[2,3-d][1,3]thiazole-2,5,10-trione]
IC50 at 72 h (in vitro): 1.58 µg/mL (≈ 3.84 µM) | LD50ip (male mice): >1000 mg/kg | inhibition at 6.25 µg/mL [1]: ≥ 90% | MIC90 [1]: < 6.25 µg/mL

O=C1C2=C(C(=O)c3ccccc31)C(c1ccc(F)cc1)c1sc(=O)[nH]c1S2 (stereo not drawn) [Compound 4h, 11-(4-Fluorophenyl)-3,11-dihydro-2H-benzo[6,7]thiochromeno[2,3-d][1,3]thiazole-2,5,10-trione]
IC50 at 72 h (in vitro): 1.47 µg/mL (≈ 3.72 µM) | LD50ip (male mice): 750 mg/kg | inhibition at 6.25 µg/mL [1]: ≥ 90% | MIC90 [1]: < 6.25 µg/mL

NNC(=O)c1ccncc1 [Isoniazid, isoniazid, reference compound]
MIC90 (M. tuberculosis H37Rv; [3]): 0.044 µg/mL (≈ 0.321 µM) | IC50 at 72 h [2]: > 6 µg/mL

CO[C@H]1/C=C/O[C@@]2(C)Oc3c(C)c(O)c4c(O)c(c(/C=N/N5CCN(C)CC5)c(O)c4c3C2=O)NC(=O)/C(C)=C\C=C\[C@H](C)[C@H](O)[C@@H](C)[C@@H](O)[C@@H](C)[C@H](OC(C)=O)[C@@H]1C [Rifampin, reference compound]
MIC90 (M. tuberculosis H37Rv; [3]): 0.075 µg/mL (≈ 0.0911 µM) | IC50 at 72 h [2]: > 6 µg/mL
